Test results taken from patent US12370192B2, “Azole-fused pyridazin-3(2H)-one derivatives” (TAKEDA PHARMACEUTICAL COMPANY LIMITED, priority 2019, dated 2025).

Columns and labels:
[1] = target: T1, human GPR139 receptor (Homo sapiens, UniProt Q6DWJ6); experiment: GPR139 Competition Binding (membrane-based, tritium-labeled ligand); details: T-REx-CHO membranes with human GPR139; 6.5 nM tritium-labeled ligand; 11-point curve, 30 μM maximum concentration; read-out: GPR139 Binding Affinity (pKi) (converted)
T1 construct: expressed in transfected cells; host or cells: T-REx-CHO (Thermo Fisher Scientific), doxycycline-induced
T1 sequence (Q6DWJ6 1-353): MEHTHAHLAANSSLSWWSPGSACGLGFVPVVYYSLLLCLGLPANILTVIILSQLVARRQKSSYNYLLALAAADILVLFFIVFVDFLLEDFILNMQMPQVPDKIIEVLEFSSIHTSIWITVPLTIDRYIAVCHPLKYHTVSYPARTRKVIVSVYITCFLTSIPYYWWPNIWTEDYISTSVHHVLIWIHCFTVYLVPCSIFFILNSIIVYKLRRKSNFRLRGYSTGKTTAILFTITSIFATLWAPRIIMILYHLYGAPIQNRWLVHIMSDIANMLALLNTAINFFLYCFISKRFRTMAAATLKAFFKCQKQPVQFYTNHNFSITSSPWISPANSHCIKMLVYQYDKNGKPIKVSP
Method in brief: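 Membranes came from doxycycline-induced T-REx-CHO cells expressing human GPR139. They were incubated 20 min at room temperature with 6.5 nM tritiated ligand and compound (11 points, top 30 μM) in HEPES pH 7.3 buffer with MgCl2/CaCl2. Filter-bound counts gave Ki by four-parameter fit, reported as pKi.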

[2] = target: T1, human GPR139 receptor; experiment: Measurement of GPR139 Activation Via Calcium Signaling (FLIPR, T-REx-CHO cells); assay type: cell-based; details: T-REx-CHO cells stably expressing human GPR139, 11-point dose response, 10 μM maximum concentration, read-out: GPR139 Potency (pEC50) (converted)
Method in brief: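 Calcium flux read by FLIPR for 1 min after adding compounds (11 concentrations, maximum 10 μM) to doxycycline-induced (2 μg/mL, 17 h) T-REx-CHO cells expressing human GPR139. Cells dye-loaded 40 min at 37 °C in HBSS, 1 mM HEPES pH 7.4 with probenecid; activation reported as pEC50 from four-parameter logistic fit.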

Row | Ki [1] [nM] | EC50 [2] [nM] | SMILES
1 | 1070 | 67.6 | COc1ccc([C@H](C)NC(=O)Cn2ncc3c(c(C)nn3C)c2=O)c(F)c1 [Example 19, (S)-2-(1,3-dimethyl-4-oxo-1,4-dihydro-5H-pyrazolo[3,4-d]pyridazin-5-yl)-N-(1-(2-fluoro-4-methoxyphenyl)ethyl)acetamide]
2 | 2 | 85.1 | Cc1cc(Cl)ccc1[C@H](C)NC(=O)Cn1ncc2c(c(C)cn2C2CC2)c1=O [Example 63, (S)—N-(1-(4-chloro-2-methylphenyl)ethyl)-2-(1-cyclopropyl-3-methyl-4-oxo-1,4-dihydro-5H-pyrrolo[2,3-d]pyridazin-5-yl)acetamide]
3 | 7.08 | 60.3 | Cc1ccc([C@H](C)NC(=O)Cn2ncc3c(c(C4CC4)nn3C)c2=O)c(F)c1 [Example 124, (S)-2-(3-cyclopropyl-1-methyl-4-oxo-1,4-dihydro-5H-pyrazolo[3,4-d]pyridazin-5-yl)-N-(1-(2-fluoro-4-methylphenyl)ethyl)acetamide]
4 | 75.9 | 51.3 | Cc1ccc([C@H](C)NC(=O)Cn2ncc3c(c(C(F)(F)F)nn3C)c2=O)cc1 [Example 169, (S)-2-(1-methyl-4-oxo-3-(trifluoromethyl)-1,4-dihydro-5H-pyrazolo[3,4-d]pyridazin-5-yl)-N-(1-(p-tolyl)ethyl)acetamide]
5 | 23.4 | ≥ 10000 | Cc1ccc([C@H](C)NC(=O)Cn2nc(C)c3cnn(-c4ccccc4)c3c2=O)c(F)c1 [Example 6, (S)—N-(1-(2-fluoro-4-methylphenyl)ethyl)-2-(4-methyl-7-oxo-1-phenyl-1,7-dihydro-6H-pyrazolo[3,4-d]pyridazin-6-yl)acetamide]
6 | 339 | 74.1 | COc1ccc([C@H](C)NC(=O)Cn2ncc3c(c(C4CC4)nn3C)c2=O)cc1 [Example 116, (S)-2-(3-cyclopropyl-1-methyl-4-oxo-1,4-dihydro-5H-pyrazolo[3,4-d]pyridazin-5-yl)-N-(1-(4-methoxyphenyl)ethyl)acetamide]
7 | 389 | 234 | Cc1nn(C(C)C)c2cnn(CC(=O)N[C@@H](C)c3ccc(OC(F)(F)F)cc3)c(=O)c12 [Example 93, (S)-2-(1-isopropyl-3-methyl-4-oxo-1,4-dihydro-5H-pyrazolo[3,4-d]pyridazin-5-yl)-N-(1-(4-(trifluoromethoxy)phenyl)ethyl)acetamide]
8 | 1450 | 2140 | COc1ccc([C@H](C)NC(=O)Cn2nc(C)c3c(c(C)nn3C)c2=O)cc1 [Example 123, (S)—N-(1-(4-methoxyphenyl)ethyl)-2-(1,3,7-trimethyl-4-oxo-1,4-dihydro-5H-pyrazolo[3,4-d]pyridazin-5-yl)acetamide]
9 | 1020 | 79.4 | Cc1ccc([C@H](C)NC(=O)Cn2ncc3c(cnn3C)c2=O)c(F)c1 [Example 35, (S)—N-(1-(2-fluoro-4-methylphenyl)ethyl)-2-(1-methyl-4-oxo-1,4-dihydro-5H-pyrazolo[3,4-d]pyridazin-5-yl)acetamide]
10 | 95.5 | 123 | Cc1ccc([C@H](C)NC(=O)Cn2ncc3c(c(C)nn3C)c2=O)c(F)c1 [Example 99]
11 | 676 | 77.6 | Cc1ccc([C@H](C)NC(=O)Cn2ncc3c(cnn3C(C)C)c2=O)c(F)c1 [Example 88, (S)—N-(1-(2-fluoro-4-methylphenyl)ethyl)-2-(1-isopropyl-4-oxo-1,4-dihydro-5H-pyrazolo[3,4-d]pyridazin-5-yl)acetamide]
12 | 251 | 38.9 | Cc1ccc([C@H](C)NC(=O)Cn2ncc3c(c(C)nn3C)c2=O)cc1 [Example 36, (S)-2-(1,3-dimethyl-4-oxo-1,4-dihydro-5H-pyrazolo[3,4-d]pyridazin-5-yl)-N-(1-(p-tolyl)ethyl)acetamide]

The next lines start with the molecule.

Row | SMILES | Ki [1] [nM] | EC50 [2] [nM]
13 | Cc1nn(CC(=O)N[C@@H](C)c2ccc(C(F)(F)F)cn2)c(=O)c2c1c(C)nn2C1CC1 [Example 101, (S)-2-(1-cyclopropyl-3,4-dimethyl-7-oxo-1,7-dihydro-6H-pyrazolo[3,4-d]pyridazin-6-yl)-N-(1-(5-(trifluoromethyl)pyridin-2-yl)ethyl)acetamide] | 282 | 398
14 | Cc1nn(C2CC2)c2cnn(CC(=O)N[C@@H](C)c3ccc(C(F)(F)F)cc3)c(=O)c12 [Example 107, (S)-2-(1-cyclopropyl-3-methyl-4-oxo-1,4-dihydro-5H-pyrazolo[3,4-d]pyridazin-5-yl)-N-(1-(4-(trifluoromethyl)phenyl)ethyl)acetamide] | 245 | 42.7
15 | Cc1nn(C2CC2)c2c(=O)n(CC(=O)N[C@@H](C)c3ccc(C(F)(F)F)cn3)ncc12 [Example 58, (S)-2-(1-cyclopropyl-3-methyl-7-oxo-1,7-dihydro-6H-pyrazolo[3,4-d]pyridazin-6-yl)-N-(1-(5-(trifluoromethyl)pyridin-2-yl)ethyl)acetamide] | 1350 | 74.1
16 | COc1ccc([C@H](C)NC(=O)Cn2ncc3c(c(C)cn3C3CC3)c2=O)cc1 [Example 145, (S)-2-(1-cyclopropyl-3-methyl-4-oxo-1,4-dihydro-5H-pyrrolo[2,3-d]pyridazin-5-yl)-N-(1-(4-methoxyphenyl)ethyl)acetamide] | 89.1 | 29.5
17 | COc1ccc([C@H](C)NC(=O)Cn2nc(C)c3c(c(C4CC4)nn3C)c2=O)cc1 [Example 121, (S)-2-(3-cyclopropyl-1,7-dimethyl-4-oxo-1,4-dihydro-5H-pyrazolo[3,4-d]pyridazin-5-yl)-N-(1-(4-methoxyphenyl)ethyl)acetamide] | 74.1 | 129
18 | COc1ccc([C@H](C)NC(=O)Cn2nc(C)c3cnn(-c4ccccc4)c3c2=O)cc1 [Example 2, (S)—N-(1-(4-methoxyphenyl)ethyl)-2-(4-methyl-7-oxo-1-phenyl-1,7-dihydro-6H-pyrazolo[3,4-d]pyridazin-6-yl)acetamide] | 871 | 56.2
19 | C[C@H](NC(=O)Cn1ncc2c(C3CC3)cn(C)c2c1=O)c1ccc(C(F)(F)F)cc1 [Example 159, (S)-2-(3-cyclopropyl-1-methyl-7-oxo-1,7-dihydro-6H-pyrrolo[2,3-d]pyridazin-6-yl)-N-(1-(4-(trifluoromethyl)phenyl)ethyl)acetamide] | 79.4 | 100
20 | Cc1cn(C2CC2)c2cnn(CC(=O)N[C@@H](C)c3ccc(C(F)(F)F)cc3)c(=O)c12 [Example 144, (S)-2-(1-cyclopropyl-3-methyl-4-oxo-1,4-dihydro-5H-pyrrolo[2,3-d]pyridazin-5-yl)-N-(1-(4-(trifluoromethyl)phenyl)ethyl)acetamide] | 20 | 83.2
21 | C[C@H](NC(=O)Cn1ncc2c(C3CC3)nn(C)c2c1=O)c1cccc(F)c1 [Example 148, (S)-2-(3-cyclopropyl-1-methyl-7-oxo-1,7-dihydro-6H-pyrazolo[3,4-d]pyridazin-6-yl)-N-(1-(3-fluorophenyl)ethyl)acetamide] | 589 | 20
22 | CC(C)c1nn(CC(=O)N[C@@H](C)c2ccc(C(F)(F)F)cc2)c(=O)c2c1cnn2C(C)(C)C [Example 12, (S)-2-(1-(tert-butyl)-4-isopropyl-7-oxo-1,7-dihydro-6/1-pyrazolo[3,4-d]pyridazin-6-yl)-N-(1-(4-(trifluoromethyl)phenyl)ethyl)acetamide] | 33.9 | 2140
